Data: PubChem BioAssay (NCI)
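Compound exposure: 48 hours, 5 concentrations, 96-well plates. GI50: concentration for 50% inhibition of growth. TGI marks complete inhibition of growth.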

Columns and labels:
Assay in all cases: growth of human tumour cells (NCI), 48 h
[1] = tested on: EKVX NSCLC
[2] = tested on: HT29 colon
[3] = tested on: KM12 colon
[4] = tested on: MALME-3M melanoma
[5] = tested on: OVCAR-8 ovarian
[6] = tested on: SK-MEL-28 melanoma
[7] = tested on: TK-10 renal
[8] = tested on: U251 CNS
[9] = tested on: UACC-62 melanoma
[10] = tested on: UO-31 renal

SMILES	TGI [1]	TGI [2]	TGI [3]	TGI [4]	TGI [5]	TGI [6]	TGI [7]	TGI [8]	TGI [9]	TGI [10]	GI50 [1]	GI50 [3]	GI50 [4]	GI50 [5]	GI50 [6]	GI50 [7]	GI50 [2]	GI50 [10]	GI50 [8]	GI50 [9]
N=C1SCCS1	> 100 µM	> 100 µM	> 100 µM	> 100 µM	> 100 µM	> 100 µM	> 100 µM	> 100 µM	> 100 µM	> 100 µM	–	–	–	–	–	–	–	–	–	–
Nc1cccc2cc(S(=O)(=O)Nc3ccc(C(=O)O)cc3)ccc12	> 100 µM	> 100 µM	> 100 µM	> 100 µM	> 100 µM	> 100 µM	> 100 µM	> 100 µM	> 100 µM	> 100 µM	–	–	–	–	–	–	–	–	–	–
CC(C)=CCC/C(C)=C/CC/C(C)=C/C(O)c1ccccc1 (configuration not stated)	34.3 µM	32.9 µM	51.8 µM	34.5 µM	40.6 µM	–	88.4 µM	33.5 µM	30.9 µM	36.3 µM	–	–	–	–	–	–	–	–	–	–
O=C1c2ccccc2-c2ccc(N(Cc3ccc(Br)cc3)Cc3ccc(Br)cc3)cc21	> 100 µM	> 100 µM	> 100 µM	> 100 µM	> 100 µM	> 100 µM	> 100 µM	> 100 µM	> 100 µM	> 100 µM	–	–	–	–	–	–	–	–	–	–
O=C(c1no[n+]([O-])c1C(=O)c1csc2ccccc12)c1csc2ccccc12	12.5 µM	13.7 µM	18.7 µM	13.5 µM	11.4 µM	11 µM	4.9 µM	22.7 µM	25.7 µM	1.02 µM	–	–	–	–	–	–	–	–	–	–
CC(=O)NC1C(OCc2ccccc2)OC(CO)C(O)C1OC(C)C(=O)NC(C(=O)NC(CCC(=O)Nc1ccc2c(c1)CN1C(=O)c3ccccc3C1=N2)C(N)=O)C(C)C (configuration not stated)	> 100 µM	> 100 µM	> 100 µM	> 100 µM	> 100 µM	> 100 µM	> 100 µM	> 100 µM	> 100 µM	> 100 µM	–	–	–	–	–	–	–	–	–	–
NC(=O)OCc1c(O)c2c(c(O)c1COC(N)=O)C(=O)C=CC2=O	> 100 µM	> 100 µM	> 100 µM	> 100 µM	> 100 µM	> 100 µM	> 100 µM	> 100 µM	> 100 µM	> 100 µM	–	–	–	–	–	–	–	–	–	–
CC(=O)Nc1ccc2c(c1)C(=Nc1ccc(C(=O)O)cc1)c1ccccc1-2	84.9 µM	> 100 µM	> 100 µM	> 100 µM	> 100 µM	> 100 µM	> 100 µM	> 100 µM	> 100 µM	> 100 µM	–	–	–	–	–	–	–	–	–	–
CCOC(=O)c1c(C)n(-c2ccc(C)cc2)c2c1cc(O)c1[nH]c3c(c12)CCCC3	99.7 µM	32.3 µM	51.5 µM	37 µM	82.3 µM	33.1 µM	77.8 µM	34.8 µM	46.7 µM	27.9 µM	–	–	–	–	–	–	–	–	–	–
CC(C)c1cccc(C(C)C)c1NC(=S)Nc1ccccc1	> 100 µM	> 100 µM	> 100 µM	> 100 µM	> 100 µM	> 100 µM	> 100 µM	> 100 µM	> 100 µM	> 100 µM	–	–	–	–	–	–	–	–	–	–
O=C1C(c2c(O)n(-c3ccccc3)c3ccccc23)=Nc2ccccc21	83.2 µM	> 100 µM	> 100 µM	> 100 µM	> 100 µM	> 100 µM	53.6 µM	> 100 µM	> 100 µM	> 100 µM	–	–	–	–	–	–	–	–	–	–
CSc1nc(NC2OC(CO)C(O)C(O)C2O)c(N)c(=O)n1C (configuration not stated)	> 100 µM	> 100 µM	> 100 µM	> 100 µM	> 100 µM	> 100 µM	–	> 100 µM	> 100 µM	> 100 µM	–	–	–	–	–	–	–	–	–	–
CCCCC[C@H]1CC=CC(=O)O1	56.7 µM	19.8 µM	13.9 µM	33.9 µM	24.8 µM	20.5 µM	40.4 µM	20.8 µM	23 µM	24 µM	–	–	–	–	–	–	–	–	–	–
CCCCCCCCCCCCCCCc1ccc(C(=O)C[n+]2ccccc2)cc1	8.72 µM	–	1.59 µM	4.95 µM	2.55 µM	2.99 µM	2.72 µM	–	–	–	1.82 µM	0.523 µM	1.75 µM	1.22 µM	1.21 µM	1.12 µM	–	–	–	–
CCN(CC)CCSc1nc2c([N+](=O)[O-])cccc2[nH]1	> 100 µM	> 100 µM	> 100 µM	–	> 100 µM	> 100 µM	> 100 µM	–	> 100 µM	–	–	–	–	–	–	–	–	–	–	–
COC(=O)c1c(OC(C)=O)ccc2c1c1c(n2Cc2ccccc2)C(=O)c2ccccc2C1=O	48.3 µM	32.3 µM	47.4 µM	50.7 µM	89.1 µM	41.2 µM	95.4 µM	42.4 µM	48.8 µM	> 100 µM	–	–	–	–	–	–	–	–	–	–
O=C1Nc2ccccc2/C1=C\c1c(Cl)[nH]c2ccccc12	5.29 µM	0.598 µM	1.67 µM	6.39 µM	8.51 µM	0.78 µM	6.65 µM	9.15 µM	9.75 µM	6.84 µM	–	–	–	–	–	–	–	–	–	–
COc1ccc([N+](=O)[O-])cc1[I+]c1cc([N+](=O)[O-])ccc1OC	> 100 µM	> 100 µM	94.7 µM	17.1 µM	> 100 µM	21.8 µM	> 100 µM	34.2 µM	94.8 µM	> 100 µM	–	–	–	–	–	–	–	–	–	–
N/C(=N/O)c1cn(C2OC(CO)C(O)C2O)c2ncnc(NO)c12 (configuration not stated)	> 100 µM	> 100 µM	–	0.408 µM	> 100 µM	> 51.3 µM	> 33.6 µM	54.1 µM	1.66 µM	–	–	–	–	–	–	–	–	–	–	–
N=C(N)c1ccc(-c2ccc(-c3ccccc3)o2)cc1	11.8 µM	4.51 µM	3.58 µM	3.12 µM	–	3.35 µM	3.73 µM	–	–	3.53 µM	2.61 µM	1.86 µM	1.55 µM	–	1.67 µM	1.89 µM	2.01 µM	1.79 µM	–	–
CC[n+]1c(/C=C/c2ccc(N(CCCl)CCCl)cc2)ccc2cc(Br)ccc21	–	–	3.3 µM	–	10.4 µM	2.52 µM	–	4.11 µM	7.55 µM	–	1060 µM	–	84 µM	–	–	652 µM	548 µM	1470 µM	–	–
COc1cccc(/C=N/[N-]C(N)=O)c1[O-].[OH3+].[Zn+2]	> 100 µM	> 100 µM	> 100 µM	> 100 µM	> 100 µM	> 100 µM	> 100 µM	> 100 µM	> 100 µM	> 100 µM	–	–	–	–	–	–	–	–	–	–
O=C(Nc1ccc(-n2cc(-c3ccncc3)c(-c3ccc(O)c(Cl)c3)n2)cc1)c1ccc(Cl)c(Cl)c1	> 32.5 µM	–	> 32.5 µM	> 32.5 µM	> 32.5 µM	> 32.5 µM	> 32.5 µM	> 32.5 µM	> 32.5 µM	> 32.5 µM	30.5 µM	1.63 µM	2.47 µM	1.74 µM	> 32.5 µM	1.52 µM	–	1.8 µM	0.693 µM	2.48 µM
Cc1ccc(CCCC(=O)O)cc1C	> 100 µM	> 100 µM	> 100 µM	> 100 µM	> 100 µM	> 100 µM	> 100 µM	> 100 µM	> 100 µM	> 100 µM	–	–	–	–	–	–	–	–	–	–
CNC1=C(C)C(=O)C2=C(C1=O)C(COC(N)=O)C1(OC)C3NC3CN21 (configuration not stated)	> 100 µM	4.01 µM	2.04 µM	3.61 µM	11 µM	6.43 µM	94.1 µM	15 µM	1.55 µM	7.4 µM	–	–	–	–	–	–	–	–	–	–
CC(=O)NC1C(OCc2ccccc2)OC(CO)C(O)C1OCC(=O)NC(C)C(=O)NC(CCC(=O)Nc1ccc2c(c1)CN1C(=O)c3ccccc3C1=N2)C(N)=O (configuration not stated)	> 100 µM	> 100 µM	> 100 µM	> 100 µM	> 100 µM	> 100 µM	> 100 µM	> 100 µM	> 100 µM	> 100 µM	–	–	–	–	–	–	–	–	–	–
